Laboratory results taken from patent publication US11872296B2, “Preservation compositions” (Conopco, Inc., priority 2018, dated 2024).

Experiments:
[1] = system: Gram negative non-fermenting bacteria: Pseudomonas aeruginosa, Pseudomonas putida & Burkholderia cepacia; test: Liquid broth checkerboard assay (MIC, ΣFIC synergy), Pool 1; format: cell-based; details: tryptic soy broth, 30° C., 24 hours, ΣFIC<1 synergistic
Source text: (§1) The differing behaviours of inhibitory antimicrobials in isolation and mixtures have been widely explored using the concept of the Fractional Concentration and Fractional Inhibitory Concentration (FIC). See for instance JRW Lambert and R Lambert, J. Appl. Microbiol 95, 734 (2003); T. Jadavji, CG Prober and R Cheung, Antimicrobial Agents and Chemotherapy 26, 91 (1984), and WO 2004/006876. These parameters can be defined as follows:
(§2) FC (component a)=Concentration of component a tested in the mixture/MIC (component a tested as a single active)
(§3) FIC (component a)=MIC (component a tested in the mixture)/MIC (component a tested as a single active)
(§4) The interactions between antimicrobials can be additive, synergistic or possibly antagonistic depending on whether the efficacy of the combination is equivalent to, greater than or less than that obtained for the same total concentration of the individual components when tested alone.
(§5) These relationships can be expressed mathematically by summing the fractional MIC values for all the components present in the mixture to give the “fractional inhibitory index”: ΣFIC=FIC(component 1)+FIC(component 2) Such that: ΣFIC≥1 corresponds to additive or antagonistic activity ΣFIC<1 corresponds to synergistic activity
(§6) Liquid broth assays (MIC and checkerboard) were conducted to identify the minimum concentration(s) of individual and binary combinations of preservation chemicals. A modified methodology to ISO 20776-1:2006 was utilised for the screening as follows. Stock solutions of preservation chemicals and tryptic soy broth were inoculated with 1-5×10^6 microorganisms and incubated at 30° C. for 24 hours, after which optical densities at OD600nm were measured. […] Preservation chemicals were screened at a concentration range of 0.0156-2%.

[2] = system: Gram negative fermenting bacteria: Enterobacter gergoviae & Klebsiella species; test: Liquid broth checkerboard assay (MIC, ΣFIC synergy), Pool 2; format: cell-based; details: tryptic soy broth, 30° C., 24 hours, ΣFIC<1 synergistic
Source text: as §1, §2, §3, §4, §5, §6

[3] = binary combination with Citric Acid
[4] = binary combination with Itaconic acid

SMILES	ΣFIC synergy score [1, 3]	ΣFIC synergy score [1, 4]	ΣFIC synergy score [2, 3]	ΣFIC synergy score [2, 4]
CCCCc1ccc(O)cc1 [4-n-butyl phenol]	0.50	0.44	0.59	0.50
CCOc1cc(C=O)ccc1O [Ethylvanillin]	0.63	0.56	0.69	0.63
C=CCc1ccc(O)c(OC)c1 [Eugenol]	0.75	0.38	0.53	0.38
